According to US20230255966A1, “A COMBINATION OF A CBP/P300 BROMODOMAIN INHIBITOR AND AN EGFR INHIBITOR FOR USE IN TREATING EGFR-MUTANT NSCLC” (TOLREMO THERAPEUTICS AG, priority 2020, published 2023):

What was measured:
NCI-H1975 xenografts = assay: NCI-H1975 xenograft tumor growth; assay type: in vivo, NMRI-Nude mice
Procedure: Tumor volume was measured using a manual caliper two to three times a week. The tumor volume was calculated using the formula: lager tumor diameter x square of the smaller tumor diameter divided by 2. Based on a linear fit of the mean tumor volumes the slopes of the curves were compared by regression analysis (two-tailed).
(§1) The response was determined by comparing tumor volume change at time t to its baseline: % tumor volume change=ΔVolt=100%×((Vt−Vinitial)/Vinitial). The Best Response was the minimum value of ΔVolt for t≥10 d. For each time t, the average of ΔVolt from t=0 to t was also calculated. The BestAvgResponse is defined as the minimum value of this average for t≥10 d. This metric captures a combination of speed, strength and durability of response into a single value. […] Mice that were sacrificed because of an adverse event before they had completed 14 d on trial were removed from the data set.
as §1, with “ΔVolt for t≥6 d. For” for “ΔVolt for t≥10 d. For”

HCC4006 cells = assay: Label-free determination of cell proliferation (CELIGO); details: 21 days (FIG. 10)
Procedure: 2000 HCC4006 (ATCC; CRL2871) were seeded into 96 well plates (Greiner BioOne 655090) one day prior to drug treatment in RPMI medium containing 10% FCS and 2 mM L-Glutamine. The next day wells were imaged label-free using brightfield imaging on a CELIGO Image Cytometer to determine the initial cell number. Subsequently cells were treated with either DMSO, with single drugs (osimertinib and each of the CBP/p300 bromodomain inhibitors) or drug combinations of 100 nM osimertinib and one CBP/p300 bromodomain inhibitor with drug concentrations given below. Plates were regularly imaged over weeks using brightfield mode (CELIGO Imaging Cytometer) to track cell proliferation in each well over time. Growth medium and treatments were replenished twice weekly. […] Cell numbers were determined using CELIGO software's built-in “direct cell counting” analysis tool in the brightfield mode.

**Q.** `CO[C@H]1CC[C@H](n2c([C@@H]3CCCC(=O)N3c3ccc(F)c(F)c3)nc3cc(-c4c(C)noc4C)ccc32)CC1` [CCS1477] was tested. Which “Response rate to therapy (best average response)” value (NCI-H1975 xenografts; 2 mg/kg osimertinib in combination with 20 mg/kg CCS1477) did it give?
**A.** increased response rate

**Q.** And the “Tumor growth (slopes of mean tumor volume curves) versus osimertinib group” value (NCI-H1975 xenografts; 2 mg/kg osimertinib in combination with 20 mg/kg CCS1477, daily, orally)?
**A.** significant difference

**Q.** What about the “Response to therapy (best average response)” value (NCI-H1975 xenografts; 20 mg/kg CCS1477 alone) of the same compound?
**A.** absence of response

**Q.** What about the “Tumor growth (slopes of mean tumor volume curves) versus vehicle” value (NCI-H1975 xenografts; 20 mg/kg CCS1477 single agent, daily, orally) of the same compound?
**A.** No significant difference

**Q.** And the “Development of drug resistance / re-growth” value (HCC4006 cells; HCC4006, combined with 100 nM osimertinib)?
**A.** prevent the development of drug resistance

**Q.** And the “Effect on cell proliferation on their own” value (HCC4006 cells; HCC4006, single agent (1 μM Compound A, 0.2 μM Compound C, 0.2 μM CCS1477, 1 μM FT-6876, 0.2 μM GNE-781))?
**A.** do not affect cell proliferation
